Data set [1] in a line: Weight and tolerance of treated TgA86 mice. Format: in vivo. The following applies: male TgA86 mice, NMN 185 mg/kg intraperitoneally, 10 weeks. As to the method:
(§1) The efficacy of the use of NMN (compound IE) according to the invention was evaluated in 3-week-old TgA86 mice as a model for ankylosing spondylitis. TgA86 mice develop peripheral and axial AS with an incidence of 100%. In these mice, the peripheral form is manifested by joint welling and paw deformation, whilst the axial form is clinically characterised by curved tails and pelvic ankylosis.
(§2) In brief, male TgA86 mice were divided into two groups of 10 mice each: (i) a control group, in which the mice were treated with vehicle, i.e. a 0.9% NaCl solution (10 mL/kg), marked ‘Vehicle’; […] a group of mice treated with NMN (185 mg/kg), marked ‘NMN’. The solutions were injected intraperitoneally.
The mice were treated for 10 weeks under the conditions set forth supra. The joint score, tail score, and weight of the mice were measured every week. The joint score was determined in accordance with table 3 infra: […]

The subject of data set [2] is TgA86 mice as a model for ankylosing spondylitis. Put plainly: TgA86 mouse model of ankylosing spondylitis: joint score and tail score. It counts as in vivo. The following applies: male TgA86 mice, NMN 185 mg/kg intraperitoneally. As to the method:
as §1, §2
The mice were treated for 10 weeks under the conditions set forth supra. The joint score, tail score, and weight of the mice were measured every week. The joint score was determined in accordance with table 3 infra:
The tail score is an indicator that allows for an evaluation of the axial form of AS and pelvic ankylosis (see https://www.biomedcode.com/wp-content/uploads/2019/07/TgA86-white-paper.pdf). The tail score was determined in accordance with table 4 infra: […]

`NC(=O)c1ccc[n+]([C@@H]2O[C@H](COP(=O)([O-])O)[C@@H](O)[C@H]2O)c1` [NMN, nicotinamide mononucleotide]: the “tolerance / toxicity in the animals” value in data set [1] is “well tolerated by the mice and does not cause any distress or toxicity in the animals”. Besides, in data set [1] (measured every week, vs vehicle (FIG. 1)), the “development of the average weight of mice” value is on record as “follows a similar course of development to that of the control group”. Besides, the “average joint score (peripheral AS)” value in data set [2] (10 weeks, vs vehicle control group (FIG. 2)) is recorded as “reduction in the joint score of the mice compared to the control group”. For the same compound, the “average tail score (axial AS, pelvic ankylosis)” value in data set [2] (10 weeks, vs vehicle control group (FIG. 3)) is “reduces the tail score in the mice treated compared to the control group”. For the same compound, the “significance of the joint score reduction over time” value in data set [2] (T-test vs vehicle (FIG. 2)) was “particularly significant starting in the 5th week of treatment”. Besides, the “significance of the tail score reduction over time” value in data set [2] (T-test vs vehicle (FIG. 3)) was “significant starting in the second week of treatment”.
